Data: patent US11684068B2, “Herbicidal compositions and methods of use thereof” (Valent U.S.A. LLC, priority 2018, dated 2023)

What was measured:
[1] = Wet sieve test and crystal examination after accelerated aging (long-term storage stability); type: physicochemical
Experimental: Variations of Composition 1 from Table 1, above, were subjected to extreme temperatures to determine long-term storage stability including the likelihood of large crystals growing that cause clogging of the spray nozzle by performing the wet sieve test. Specifically, these compositions containing various amounts of polyvinyl alcohol and ammonium sulfate were subjected to 2 weeks at 54° C. and 4 weeks at 50° C. accelerated aging. The wet sieve test typically was performed soon after the samples were brought back to room temperature using the following protocol:
A bottle containing the composition was emptied onto a 100-mesh sieve positioned on top of a receiver. Water was added to the bottle, shaken to rinse, and the rinse solution was poured onto the mesh to wash off the material. The rinsing step was repeated until visible quantity of residue on the mesh remained constant. If necessary, additional, minimum streams of water were introduced by way of a squirt or spray bottle to further clear the mesh. Typically, about 250 milliliters of water was used for about 40 grams of sample. The mesh was then dried to a constant weight and observed under a microscope.
(§1) Variations of Composition 2 from Table 1, above, were subjected to several conditions to determine long-term storage stability including % wet sieve test residue. Specifically, these compositions contained 0% or 2.8% w/w of polyvinyl alcohol and 0% or 2.8% w/w ammonium sulfate or 0% or 2.8% or 5.6% w/w potassium citrate and were subjected to 2 weeks at 54° C. and 4 weeks at 50° C.
Variations of Composition 3 from Table 1 above were subjected to several conditions to determine long-term storage stability including % wet sieve test residue. Specifically, these compositions contained 0 or 2.8% w/w of polyvinyl alcohol and 0% or 2.8% w/w ammonium sulfate and were subjected to 2 weeks at 54° C.
as §1, with “Composition 4” for “Composition 2”, “sulfate” for “sulfate or 0% or 2.8% or 5.6% w/w potassium citrate”, “C.” for “C. and 4 weeks at 50° C.”
Compositions 5-7 from Table 1, above, were subjected to several conditions to determine long-term storage stability including % wet sieve test residue. Specifically, these compositions contained 1.4% or 1.5% w/w of polyvinyl alcohol and 2.0% or 2.8% w/w ammonium sulfate and were subjected to 2 weeks at 54° C. and 4 weeks at 50° C.

[2] = Metribuzin solubility in salt solutions; type: physicochemical; details: saturated in ammonium sulfate, ammonium acetate and potassium citrate tribasic monohydrate solutions; FIG. 1
Experimental: Metribuzin is partially soluble in water. Because of its partial solubility metribuzin grows crystals in aqueous solutions. It is a discovery of the present invention that, if water solubility of metribuzin is lowered, then crystal growth is inhibited or reduced. To determine if salts could lower the water solubility of metribuzin, metribuzin was added to the saturation point to several concentrations of ammonium sulfate, ammonium acetate and potassium citrate tribasic monohydrate solutions. Results can be seen in FIG. 1.

[3] = variations of Composition 2, 54° C. 2 weeks and 50° C. 4 weeks

Row | Compound | effect of additive on crystal growth and sieve residue [1, 3] | effect of additive on crystal growth and sieve residue ([1]; variations of Composition 3, 54° C. 2 weeks) | effect of additive on crystal growth and sieve residue ([1]; variations of Composition 4, 54° C. 2 weeks) | water solubility of metribuzin versus salt concentration [2]
1 | N.N.O=S(=O)(O)O [Ammonium sulfate] | reduced crystal growth to small crystals | reduced the amount of crystals isolated on the sieve substantially | inhibited crystal growth and lowered sieve residue | –
2 | O=C([O-])CC(O)(CC(=O)[O-])C(=O)[O-].[K+].[K+].[K+] [Potassium citrate] | completely inhibited crystal growth | – | – | –
3 | CSc1nnc(C(C)(C)C)c(=O)n1N [metribuzin] | – | – | – | negatively correlated
